Experimental findings from patent US20170362228A1, “TETRAHYDRO-PYRIDO[3,4-b]INDOLE ESTROGEN RECEPTOR MODULATORS AND USES THEREOF” (Genentech, Inc., priority 2016, published 2017) are described below.

Where two headings read alike, the source gives them in different places.

The target in assay [1] is T1, estrogen receptor alpha (ESR1) (Homo sapiens, UniProt P03372).
T1 construct: endogenous in cells; host or cells: MCF7 breast cancer cells
T1 sequence (P03372 1-595): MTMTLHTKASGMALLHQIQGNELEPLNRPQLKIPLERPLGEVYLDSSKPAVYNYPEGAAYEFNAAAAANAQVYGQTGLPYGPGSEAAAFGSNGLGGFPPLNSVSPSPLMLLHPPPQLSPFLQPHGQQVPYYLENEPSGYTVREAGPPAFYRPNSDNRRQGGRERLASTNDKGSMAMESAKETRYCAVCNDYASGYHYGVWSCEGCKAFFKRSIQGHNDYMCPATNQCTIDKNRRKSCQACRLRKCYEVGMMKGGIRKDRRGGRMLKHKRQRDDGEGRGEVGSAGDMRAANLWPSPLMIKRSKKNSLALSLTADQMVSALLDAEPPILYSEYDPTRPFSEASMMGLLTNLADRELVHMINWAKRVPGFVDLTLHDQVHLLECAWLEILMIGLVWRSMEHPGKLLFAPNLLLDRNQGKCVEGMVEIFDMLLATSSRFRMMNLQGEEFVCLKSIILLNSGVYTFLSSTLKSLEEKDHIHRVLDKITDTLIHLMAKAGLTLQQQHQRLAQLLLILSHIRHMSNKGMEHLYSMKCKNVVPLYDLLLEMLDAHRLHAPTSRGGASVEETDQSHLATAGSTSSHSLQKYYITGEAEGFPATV
Kind of assay: Breast Cancer Cell ERa High Content Fluorescence Imaging Degradation Assay (Example 901). The format is cell-based. Conditions: MCF7 breast cancer cells, 4 hours, plateau of the maximal effect. On the procedure: MCF7 breast cancer cells were seeded on day 1 at a density of 10,000 cells per well in 384 well poly-lysine coated tissue culture plate (Greiner # T-3101-4), in 50 μL/well RPMI (phenol red free), 10% FBS (Charcoal stripped), containing L-glutamine. On day 2, compounds were prepared at 2 compound source concentrations: 100 μM and 1 μM (ultimately to give 2 overlapping titration curves), in a Labcyte low dead volume plate, 10 μL/well, and 10 μL of DMSO in designated wells for backfill, and 5 μM Fulvestrant (control compound) in designated wells. Compounds and controls were dispensed using a Labcyte Echo acoustic dispenser to dispense compounds with a predefined serial dilution (1.8×, 10 point, in duplicate) and appropriate backfill and control compounds (final total volume transferred was 417.5 nL and compound dispense volume ranges from 2.5 nL to 417.5 nL; 0.84% DMSO (v/v) final), ultimately producing a concentration range from 0.05 nM to 835 nM. Cell plates were incubated at 37° C., for 4 hours. Fixation and permeabilization were carried out using a Biotek EL406 plate washer and dispenser as follows. Cells were fixed by addition of 15 μL of 16% paraformaldehyde (Electron Microscopy Sciences #15710-S) directly to the 50 μL cell culture medium in each well using the peristaltic pump 5 μL cassette on a Biotek EL406 (final concentration of formaldehyde was 3.7% w/v). Samples were incubated 30 minutes. Well contents was aspirated and 50 μL/well of Phosphate Buffered Saline (PBS) containing 0.5% w/v bovine serum albumen, 0.5% v/v Triton X-100 (Antibody Dilution Buffer) was added to each well. Samples were incubated for 30 minutes. Well contents were aspirated and washed 3 times with 100 μL/well of PBS. Immunofluorescence staining of estrogen receptor alpha (ESR1) was carried out using a Biotek EL406 plate washer and dispenser as follows. The well supernatant was aspirated from the wells and 25 μL/well of anti-ESR1 mAb (F10) (Santa Cruz sc-8002) diluted 1:1000 in Antibody Dilution Buffer was dispensed. Samples were incubated for 2 hours at room temperature. Samples were washed 4 times with 100 μL/well of PBS. 25 uL/well of secondary antibody solution (Alexafluor 488 conjugate anti-mouse IgG (LifeTechnologies #A21202) diluted 1:1000 and Hoechst 33342 1 μg/ml diluted in Antibody Dilution Buffer) were dispensed into each well. Samples were incubated for 2 hours at room temperature. Samples were washed 3 times with 100 μL/well of PBS using a Biotek EL406. Quantitative fluorescence imaging of ESR1 was carried out using a Cellomics Arrayscan V (Thermo). Fluorescence images of the samples (Channel 1: XF53 Hoechst (DNA stain); Channel 2: XF53 FITC (ESR1 stain)) were acquired using a Cellomics VTI Arrayscan using the Bioapplication “Compartmental Analysis” using the auto-exposure (based on DMSO control wells) setting “peak target percentile” set to 25% target saturation for both channels. Channel 1 (DNA stain) was used to define the nuclear region (Circ). Measurements of “Mean_CircAvgIntCh2”, which is the Alexafluor 488 fluorescence intensity (ESR1) within the nuclear region, was measured on a per cell basis and averaged over all the measured cells. Data analysis was carried out using Genedata Screener Software, with DMSO and 5 nM Fulvestrant treated samples being used to define the 0% and 100% changes in ESR1. The “Robust Fit” method was used to define the inflexion point of curve (EC50) and the plateau of the maximal effect (Sinf). Degradation data for exemplary Formula I compounds is reported as ER-alpha MCF7 HCS Sinf(%) values in Table 1.

A further assay has as its system MCF7 cells. Nature of the assay: In vitro cell proliferation assays (Examples 902 and 903), MCF7. The format is cell-based. The following applies: read-out: ER-alpha MCF7 HCS (EC50). As to the method:
Efficacy of estrogen receptor modulator compounds and chemotherapeutic compounds are measured by a cell proliferation assay employing the following protocol (Mendoza et al (2002) Cancer Res. 62:5485-5488).
The CellTiter-Glo® Luminescent Cell Viability Assay is a homogeneous method to determine the number of viable cells in culture based on quantitation of the ATP present, which signals the presence of metabolically active cells. The CellTiter-Glo® Assay is designed for use with multiwell plate formats, making it ideal for automated high-throughput screening (HTS), cell proliferation and cytotoxicity assays. The homogeneous assay procedure involves adding a single reagent (CellTiter-Glo® Reagent) directly to cells cultured in serum-supplemented medium. Cell washing, removal of medium or multiple pipetting steps are not required. The Cell Titer-Glo® Luminescent Cell Viability Assay, including reagents and protocol are commercially available (Promega Corp., Madison, Wis., Technical Bulletin TB288).
The assay assesses the ability of compounds to enter cells and inhibit cell proliferation. The assay principle is based on the determination of the number of viable cells present by quantitating the ATP present in a homogenous assay where addition of the Cell TiterGlo® reagent results in cell lysis and generation of a luminescent signal through the luciferase reaction. The luminescent signal is proportional to the amount of ATP present.
Procedure: Day 1—Seed Cell Plates (384-well black, clear bottom, microclear, TC plates with lid from Falcon #353962), Harvest cells, Seed cells at 1000 cells per 54 μl per well into 384 well Cell Plates for 3 days assay. Cell Culture Medium: RPMI or DMEM high glucose, 10% Fetal Bovine Serum, 2 mM L-Glutamine, P/S. Incubate 0/N (overnight) at 37° C., 5% CO2.
Day 2—Add Drug to Cells, Compound Dilution, DMSO Plates (serial 1:2 for 9 points). Add 20 μl of compound at 10 mM in the 2nd column of 96 well plate. Perform serial 1:2 across the plate (10 μl+20 μl 100% DMSO) for a total of 9 points using Precision Media Plates 96-well conical bottom polypropylene plates from Nunc (cat.#249946) (1:50 dilution). Add 147 μl of Media into all wells. Transfer 3 μl of DMSO+compound from each well in the DMSO Plate to each corresponding well on Media Plate using Rapidplate® (Caliper, a Perkin-Elmer Co.). For 2 drug combination studies, transfer one drug 1.5 μl of DMSO+compound from each well in the DMSO Plate to each corresponding well on Media Plate using Rapidplate. Then, transfer another drug 1.5 μl to the medium plate.
Drug Addition to Cells, Cell Plate (1:10 dilution): Add 6 μl of media+compound directly to cells (54 μl of media on the cells already). Incubate 3 days at 37° C., 5% CO2 in an incubator that will not be opened often.
Day 5—Develop Plates, Thaw Cell Titer Glo Buffer at room temperature: Remove Cell Plates from 37° C. and equilibrate to room temperature for about 30 minutes. Add Cell Titer-Glo® Buffer to Cell Titer-Glo® Substrate (bottle to bottle). Add 30 μl Cell Titer-Glo® Reagent (Promega cat.# G7572) to each well of cells. Place on plate shaker for about 30 minutes. Read luminescence on Analyst HT Plate Reader (half second per well).
Cell viability assays and combination assays: Cells were seeded at 1000-2000 cells/well in 384-well plates for 16 h. On day two, nine serial 1:2 compound dilutions were made in DMSO in a 96 well plate. The compounds were further diluted into growth media using a Rapidplate® robot (Zymark Corp., Hopkinton, Mass.). The diluted compounds were then added to quadruplicate wells in 384-well cell plates and incubated at 37° C. and 5% CO2. After 4 days, relative numbers of viable cells were measured by luminescence using Cell Titer-Glo® (Promega) according to the manufacturer's instructions and read on a Wallac Multilabel Reader® (PerkinElmer, Foster City). EC50 values were calculated using Prism® 4.0 software (GraphPad, San Diego). […]

[2] abbreviates: Table 1a, DMSO and Fulvestrant define 0% and 100% changes in ESR1.

Consider `C[C@H]1Cc2c([nH]c3c(F)cccc23)[C@H](c2c(F)cc([C@@H](O)C3CN(CCCF)C3)cc2F)N1CC(F)(F)CO` (single isomer, unassigned) [Compound 132], for which the “ER-alpha MCF7 HCS (S inf)” value in assay [1] (setting [2]) is recorded as −91%. The EC50 (usually the concentration at which the effect is half-maximal) with MCF7 cells (Homo sapiens, MCF7, Table 1a) was determined as 9700 pM.
For `C[C@@H]1Cc2c([nH]c3c(F)cccc23)[C@@H](c2c(F)cc([C@H](O)C3CN(CCCF)C3)cc2F)N1CC(F)(F)CO` (single isomer, unassigned) [Compound 133], in that order: −95.88% and 83 pM.
For `C[C@@H]1Cc2c([nH]c3c(F)cccc23)[C@@H](c2c(F)cc([C@@H](O)C3CN(CCCF)C3)cc2F)N1CC(F)(F)CO` (single isomer, unassigned) [Compound 134], in that order: −94.44% and 137 pM.
On to `C[C@@H]1Cc2c([nH]c3ccccc23)[C@@H](c2c(F)cc([C@@H](O)C3CN(CCCF)C3)cc2F)N1CC(F)(F)CO` (single isomer, unassigned) [Compound 135], for which the “ER-alpha MCF7 HCS (S inf)” value in assay [1] (setting [2]) is −99.46%. Besides, the EC50 with MCF7 cells (Homo sapiens, MCF7, Table 1a) is 39 pM.
For `C[C@@H]1Cc2c([nH]c3ccccc23)[C@@H](c2c(F)cc([C@H](O)C3CN(CCCF)C3)cc2F)N1CC(F)(F)CO` (single isomer, unassigned) [Compound 136], in that order: −99.81% and 66 pM.
For `C[C@@H]1Cc2c([nH]c3ccccc23)[C@@H](c2c(F)cc([C@H](O)C3CN(CCCF)C3)cc2F)N1C[C@@H](F)CO` (single isomer, unassigned) [Compound 137], in that order: −100.96% and 74 pM.
For `C[C@@H]1Cc2c([nH]c3ccccc23)[C@@H](c2c(F)cc([C@@H](O)C3CN(CCCF)C3)cc2F)N1C[C@@H](F)CO` (single isomer, unassigned) [Compound 138], in that order: −97.67% and 276 pM.
On to `C[C@@H]1Cc2c([nH]c3ccccc23)[C@@H](c2c(F)cc([C@H](O)C3CN(CCCF)C3)cc2F)N1C[C@H](F)CO` (single isomer, unassigned) [Compound 140], for which the “ER-alpha MCF7 HCS (S inf)” value in assay [1] (setting [2]) is reported as −95.81%. Also, the EC50 in the assay with MCF7 cells (Homo sapiens, MCF7, Table 1a) stood at 989 pM.
For `C[C@@H]1Cc2c([nH]c3cc(F)ccc23)[C@@H](c2c(F)cc([C@H](O)C3CN(CCCF)C3)cc2F)N1CC(F)(F)CO` (single isomer, unassigned) [Compound 142], in that order: −100% and 65 pM.
Take `C[C@@H]1Cc2c([nH]c3ccccc23)[C@@H](c2c(F)cc([C@H](F)C3CN(CCCF)C3)cc2F)N1C[C@@H](F)CO` (single isomer, unassigned) [Compound 156]: the “ER-alpha MCF7 HCS (S inf)” value in assay [1] (Table 1b) is −102%. In the assay with MCF7 cells (Homo sapiens, MCF7, Table 1b), the EC50 turned out to be 55 pM.
For `C[C@@H]1Cc2c([nH]c3ccccc23)[C@@H](c2c(F)cc([C@@H](F)C3CN(CCCF)C3)cc2F)N1C[C@@H](F)CO` (single isomer, unassigned) [Compound 157], in that order: −100% and 78 pM.
As to `C[C@@H]1Cc2c([nH]c3ccccc23)[C@@H](c2c(F)cc([C@@H](O)C3CN(CCCF)C3)cc2F)N1CC(F)CF` (stereo in doubt) [Compound 160, (S)-(4-((1R,3R)-2-((R)-2,3-difluoropropyl)-3-methyl-2,3,4,9-tetrahydro-1H-pyrido[3,4-b]indol-1-yl)-3,5-difluorophenyl)(1-(3-fluoropropyl)azetidin-3-yl)methanol], in assay [1] (Table 1b), the “ER-alpha MCF7 HCS (S inf)” value was −101%. Further, the EC50 in the assay with MCF7 cells (Table 1b) was 32 pM.
